Results taken from patent US10519154B2, “7-substituted 1-pyridyl-naphthyridine-3-carboxylic acid amides and use thereof” (Bayer Pharma Aktiengesellschaft, priority 2016, dated 2019).

Target: T1, human M2 receptor (Homo sapiens, UniProt P08172)
T1 sequence (P08172 1-466): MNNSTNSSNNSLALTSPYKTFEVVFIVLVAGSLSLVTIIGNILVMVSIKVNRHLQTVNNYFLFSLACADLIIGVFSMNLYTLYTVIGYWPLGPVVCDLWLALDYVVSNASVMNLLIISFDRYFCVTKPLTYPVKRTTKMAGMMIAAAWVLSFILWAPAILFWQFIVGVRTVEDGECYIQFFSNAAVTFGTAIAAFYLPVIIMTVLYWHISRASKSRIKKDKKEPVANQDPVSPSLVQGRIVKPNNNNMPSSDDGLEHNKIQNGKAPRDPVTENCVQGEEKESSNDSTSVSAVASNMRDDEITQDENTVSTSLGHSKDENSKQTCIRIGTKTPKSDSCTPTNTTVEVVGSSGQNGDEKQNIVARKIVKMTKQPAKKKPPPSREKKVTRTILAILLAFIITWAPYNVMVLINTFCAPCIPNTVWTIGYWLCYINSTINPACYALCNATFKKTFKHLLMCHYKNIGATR
Test: Functional M2-GIRK1/4 activation test: allosteric potency (EC50) and efficiency
Details: for EC50: Receptor activity EC50, CHO-DUKX-M2-GIRK cells, acetylcholine at EC20, in some cases mean of two or more determinations; for Emax: read-out: Efficiency, boosting of the acetylcholine effect at EC20 acetylcholine concentration

An EC50 of 65 nM and an Emax (CHO-DUKX-M2-GIRK cells) of 100% were found for `CC[C@@H](NC(=O)c1cn(-c2ncc(F)cc2F)c2nc(N3CC4CC4(O)C3)ccc2c1=O)C(F)(F)F` (mixture of isomers) [Example 43, 1-(3,5-Difluoropyridin-2-yl)-7-[1-hydroxy-3-azabicyclo[3.1.0]hex-3-yl]-4-oxo-N-[(2R)-1,1,1-trifluorobutan-2-yl]-1,4-dihydro-1,8-naphthyridine-3-carboxamide] in this work.
An EC50 of 55 nM and an Emax (CHO-DUKX-M2-GIRK cells) of 98.5% were found for `O=C(NC(c1ccccc1Cl)C(F)(F)F)c1cn(-c2ncc(F)cc2F)c2nc(N3CCNC3=O)ccc2c1=O` (racemic) [Example 147, N-[1-(2-Chlorophenyl)-2,2,2-trifluoroethyl]-1-(3,5-difluoropyridin-2-yl)-4-oxo-7-(2-oxoimidazolidin-1-yl)-1,4-dihydro-1,8-naphthyridine-3-carboxamide] in this work.
An EC50 of 280 nM and an Emax (CHO-DUKX-M2-GIRK cells) of 99% were found for `CC(C)(CC(F)(F)F)NC(=O)c1cn(-c2ncc(F)cc2F)c2nc(N3C[C@@H](O)[C@H](O)C3)ccc2c1=O` [Example 91, 1-(3,5-Difluoropyridin-2-yl)-7-[(3R,4R)-3,4-dihydroxypyrrolidin-1-yl]-4-oxo-N-(4,4,4-trifluoro-2-methylbutan-2-yl)-1,4-dihydro-1,8-naphthyridine-3-carboxamide] in this work.
An EC50 of 330 nM and an Emax (CHO-DUKX-M2-GIRK cells) of 100% were found for `CC[C@@H](NC(=O)c1cn(-c2ncc(F)cc2F)c2nc(N3C[C@@H](O)[C@@H](O)C3)ccc2c1=O)C(F)(F)F` [Example 41, 1-(3,5-Difluoropyridin-2-yl)-7-[(3R,4S)-3,4-dihydroxypyrrolidin-1-yl]-4-oxo-N-[(2R)-1,1,1-trifluorobutan-2-yl]-1,4-dihydro-1,8-naphthyridine-3-carboxamide] in this work.
An EC50 of 410 nM and an Emax (CHO-DUKX-M2-GIRK cells) of 100% were found for `CC(C)(NC(=O)c1cn(-c2ncc(F)cc2F)c2nc(N3CC4(COC4)C3)ccc2c1=O)C(F)(F)C(F)(F)F` [Example 182, 1-(3,5-Difluoropyridin-2-yl)-7-(2-oxa-6-azaspiro[3.3]hept-6-yl)-4-oxo-N-(3,3,4,4,4-pentafluoro-2-methylbutan-2-yl)-1,4-dihydro-1,8-naphthyridine-3-carboxamide] in this work.
An EC50 of 120 nM and an Emax (CHO-DUKX-M2-GIRK cells) of 100% were found for `CC(C)(CC(F)(F)F)NC(=O)c1cn(-c2ncc(F)cc2F)c2nc(N3C[C@@H](O)CC3=O)ccc2c1=O` [Example 80, 1-(3,5-Difluoropyridin-2-yl)-7-[(4S)-4-hydroxy-2-oxopyrrolidin-1-yl]-4-oxo-N-(4,4,4-trifluoro-2-methylbutan-2-yl)-1,4-dihydro-1,8-naphthyridine-3-carboxamide] in this work.
An EC50 of 110 nM and an Emax (CHO-DUKX-M2-GIRK cells) of 100% were found for `O=C(NC(C(F)(F)F)C(F)(F)F)c1cn(-c2ncc(F)cc2F)c2nc(N3CCC(CO)(CO)CC3)ccc2c1=O` [Example 186, 7-[4,4-Bis(hydroxymethyl)piperidin-1-yl]-1-(3,5-difluoropyridin-2-yl)-N-(1,1,1,3,3,3-hexafluoropropan-2-yl)-4-oxo-1,4-dihydro-1,8-naphthyridine-3-carboxamide] in this work.
An EC50 of 60 nM and an Emax (CHO-DUKX-M2-GIRK cells) of 98.5% were found for `CC(NC(=O)c1cn(-c2ncc(F)cc2F)c2nc(N3CCC[C@@H]3CO)ccc2c1=O)C(F)(F)C(F)(F)F` (single isomer, unassigned) [Example 175] in this work.
An EC50 of 87 nM and an Emax (CHO-DUKX-M2-GIRK cells) of 98% were found for `CC(C)(C)[C@@H](NC(=O)c1cn(-c2ncc(F)cc2F)c2nc(N3CCN(CCO)C3=O)ccc2c1=O)C(F)(F)F` [Example 126, 1-(3,5-Difluoropyridin-2-yl)-7-[3-(2-hydroxyethyl)-2-oxoimidazolidin-1-yl]-4-oxo-N-[(2R)-1,1,1-trifluoro-3,3-dimethylbutan-2-yl]-1,4-dihydro-1,8-naphthyridine-3-carboxamide] in this work.
An EC50 of 87 nM and an Emax (CHO-DUKX-M2-GIRK cells) of 100% were found for `O=C(N[C@H](C1CC1)C(F)(F)F)c1cn(-c2ncc(F)cc2F)c2nc(N3CCNC3=O)ccc2c1=O` [Example 65, N-[(1R)-1-Cyclopropyl-2,2,2-trifluoroethyl]-1-(3,5-difluoropyridin-2-yl)-4-oxo-7-(2-oxoimidazolidin-1-yl)-1,4-dihydro-1,8-naphthyridine-3-carboxamide] in this work.
An EC50 of 560 nM and an Emax (CHO-DUKX-M2-GIRK cells) of 97% were found for `CC[C@@H](NC(=O)c1cn(-c2ncc(F)cc2Cl)c2nc(N3CCC(C)(O)C3)ccc2c1=O)C(F)(F)F` (mixture of isomers) [Example 49, 1-(3-Chloro-5-fluoropyridin-2-yl)-7-[3-hydroxy-3-methylpyrrolidin-1-yl]-4-oxo-N-[(2R)-1,1,1-trifluorobutan-2-yl]-1,4-dihydro-1,8-naphthyridine-3-carboxamide] in this work.
An EC50 of 240 nM and an Emax (CHO-DUKX-M2-GIRK cells) of 98% were found for `O=C(N[C@@H](C1CC1)C(F)(F)F)c1cn(-c2ncc(F)cc2F)c2nc(N3CCCN(CCO)C3=O)ccc2c1=O` [Example 123, N-[(1S)-1-Cyclopropyl-2,2,2-trifluoroethyl]-1-(3,5-difluoropyridin-2-yl)-7-[3-(2-hydroxyethyl)-2-oxotetrahydropyrimidin-1(2H)-yl]-4-oxo-1,4-dihydro-1,8-naphthyridine-3-carboxamide] in this work.
An EC50 of 110 nM and an Efficiency (boosting of the acetylcholine effect at EC20 acetylcholine concentration, CHO-DUKX-M2-GIRK cells) of 99.00% were found for `O=C(N[C@H](C1CC1)C(F)(F)F)c1cn(-c2ncccc2F)c2nc(N3CC4C[C@@]4(O)C3)ccc2c1=O` (single isomer, unassigned) [Example 137] in this work.
An EC50 of 150 nM and an Emax (CHO-DUKX-M2-GIRK cells) of 92% were found for `C[C@@H]1CN(c2ccc3c(=O)c(C(=O)NC(C)(C)C(F)F)cn(-c4ncc(F)cc4F)c3n2)C(=O)N1` [Example 144, N-(1,1-difluoro-2-methylpropan-2-yl)-1-(3,5-difluoropyridin-2-yl)-7-[(4R)-4-methyl-2-oxoimidazolidin-1-yl]-4-oxo-1,4-dihydro-1,8-naphthyridine-3-carboxamide] in this work.
An EC50 of 275 nM and an Emax (CHO-DUKX-M2-GIRK cells) of 100% were found for `O=C(NC(C(F)(F)F)C(F)(F)F)c1cn(-c2ncc(F)cc2F)c2nc(N3C[C@H](O)[C@@H](O)C3)ccc2c1=O` [Example 60, 1-(3,5-Difluoropyridin-2-yl)-7-[(3S,4S)-3,4-dihydroxypyrrolidin-1-yl]-N-(1,1,1,3,3,3-hexafluoropropan-2-yl)-4-oxo-1,4-dihydro-1,8-naphthyridine-3-carboxamide] in this work.
An EC50 of 400 nM and an Emax (CHO-DUKX-M2-GIRK cells) of 94.5% were found for `CC[C@@H](NC(=O)c1cn(-c2ncc(F)cc2F)c2nc(N3CCCC(O)C3)ccc2c1=O)C(F)(F)F` (mixture of isomers) [Example 117, 1-(3,5-Difluoropyridin-2-yl)-7-[3-hydroxypiperidin-1-yl]-4-oxo-N-[(2R)-1,1,1-trifluorobutan-2-yl]-1,4-dihydro-1,8-naphthyridine-3-carboxamide] in this work.
An EC50 of 1600 nM and an Emax (CHO-DUKX-M2-GIRK cells) of 98% were found for `CC1(NC(=O)c2cn(-c3ncc(F)cc3F)c3nc(N4C[C@@H](O)CC4=O)ccc3c2=O)CC(F)(F)C1` [Example 172, N-(3,3-Difluoro-1-methylcyclobutyl)-1-(3,5-difluoropyridin-2-yl)-7-[(4S)-4-hydroxy-2-oxopyrrolidin-1-yl]-4-oxo-1,4-dihydro-1,8-naphthyridine-3-carboxamide] in this work.
An EC50 of 130 nM and an Emax (CHO-DUKX-M2-GIRK cells) of 100% were found for `CC(C)(NC(=O)c1cn(-c2ncc(F)cc2F)c2nc(N3CC(CO)(CO)C3)ccc2c1=O)C(F)(F)C(F)(F)F` [Example 184, 7-[3,3-Bis(hydroxymethyl)azetidin-1-yl]-1-(3,5-difluoropyridin-2-yl)-4-oxo-N-(3,3,4,4,4-pentafluoro-2-methylbutan-2-yl)-1,4-dihydro-1,8-naphthyridine-3-carboxamide] in this work.
An EC50 of 18 nM and an Emax (CHO-DUKX-M2-GIRK cells) of 98% were found for `O=C(N[C@H](C1CC1)C(F)(F)F)c1cn(-c2ncc(F)cc2F)c2nc(N3CC4CC4(O)C3)ccc2c1=O` (single isomer, unassigned) [Example 38] in this work.
An EC50 of 36 nM and an Emax (CHO-DUKX-M2-GIRK cells) of 100% were found for `CC(C)C[C@@H](NC(=O)c1cn(-c2ncc(F)cc2F)c2nc(N3CCNC3=O)ccc2c1=O)C(F)(F)F` [Example 156, 1-(3,5-Difluoropyridin-2-yl)-4-oxo-7-(2-oxoimidazolidin-1-yl)-N-[-(2R)-1,1,1-trifluoro-4-methylpentan-2-yl]-1,4-dihydro-1,8-naphthyridine-3-carboxamide] in this work.
An EC50 of 22 nM and an Emax (CHO-DUKX-M2-GIRK cells) of 100% were found for `O=C(NC(c1cccc(Cl)c1)C(F)(F)F)c1cn(-c2ncc(F)cc2F)c2nc(N3C[C@@H](O)CC3=O)ccc2c1=O` (stereo partly drawn) [Example 7, N-[1-(3-Chlorophenyl)-2,2,2-trifluoroethyl]-1-(3,5-difluoropyridin-2-yl)-7-[(4S)-4-hydroxy-2-oxopyrrolidin-1-yl]-4-oxo-1,4-dihydro-1,8-naphthyridine-3-carboxamide] in this work.
An EC50 of 290 nM and an Emax (CHO-DUKX-M2-GIRK cells) of 99% were found for `O=C(NC1(C(F)(F)F)CCC1)c1cn(-c2ncc(F)cc2F)c2nc(N3C[C@@H](O)CC3=O)ccc2c1=O` [Example 151, 1-(3,5-Difluoropyridin-2-yl)-7-[(4S)-4-hydroxy-2-oxopyrrolidin-1-yl]-4-oxo-N-[1-(trifluoromethyl)cyclobutyl]-1,4-dihydro-1,8-naphthyridine-3-carboxamide] in this work.
An EC50 of 59 nM and an Emax (CHO-DUKX-M2-GIRK cells) of 99.5% were found for `CC(NC(=O)c1cn(-c2ncc(F)cc2F)c2nc(N3C[C@@H](O)[C@H](O)C3)ccc2c1=O)C(F)(F)C(F)(F)F` (mixture of isomers) [Example 88, 1-(3,5-Difluoropyridin-2-yl)-7-[(3R,4R)-3,4-dihydroxypyrrolidin-1-yl]-4-oxo-N-[3,3,4,4,4-pentafluorobutan-2-yl]-1,4-dihydro-1,8-naphthyridine-3-carboxamide] in this work.
